A word on the IC50: it is the concentration needed to halve the response being measured. A higher IC50 goes with weaker potency in that assay.

The subject of assay [1] is estrogen synthesis. Put plainly: in vivo inhibition of aromatase activity: inhibition of estrogen synthesis in rats (ovarian estrogen content). As to conditions: po, female rat, PMS/hCG and androstenedione treated; read-out: dose at which estrogen synthesis is inhibited. Here is the method:
Twenty-one-day-old female rats are injected subcutaneously with 10 IU pregnant mare serum gonadotropin (PMS). Two days later the same rats are injected subcutaneously with 30 IU human chorionic gonadrotropin (hCG). On the day following the hCG treatment the rats are injected subcutaneously with either propylene glycol (0.2 ml; […].) or with various doses of the test compound. […] Four hours after the injection of androstenedione the rats are sacrificed and their ovaries removed and trimmed free of adhering tissue and stored in pairs at -40° C. To determine the total estrogen content of the ovaries, 1.5 ml of 0.05M aqueous potassium phosphate buffer, pH 7.4, and 0.2 ml of 0.1N aqueous sodium hydroxide are added to the tissues which are then homogenized. The homogenate is extracted with 15 ml of diethyl ether, 5 ml aliquots are radioimmunoassayed with antiserum having 100% cross reactivity with estrone, estradiol and estriol. The ovarian estrogen content is expressed as ng estrogen/pair of ovaries. The inhibition of estrogen synthesis, indicative of aromatase inhibition, is calculated from the ovarian estrogen content in treated as compared to control animals.

The target in assay [2] is T1, aromatase (Homo sapiens, UniProt P11511).
T1 construct: A microsomal fraction is prepared from human placenta by the method essentially as described by Thompson and Siiteri; from tissue; host or cells: human placenta, microsomal fraction (lyophilized)
T1 sequence (P11511 1-503): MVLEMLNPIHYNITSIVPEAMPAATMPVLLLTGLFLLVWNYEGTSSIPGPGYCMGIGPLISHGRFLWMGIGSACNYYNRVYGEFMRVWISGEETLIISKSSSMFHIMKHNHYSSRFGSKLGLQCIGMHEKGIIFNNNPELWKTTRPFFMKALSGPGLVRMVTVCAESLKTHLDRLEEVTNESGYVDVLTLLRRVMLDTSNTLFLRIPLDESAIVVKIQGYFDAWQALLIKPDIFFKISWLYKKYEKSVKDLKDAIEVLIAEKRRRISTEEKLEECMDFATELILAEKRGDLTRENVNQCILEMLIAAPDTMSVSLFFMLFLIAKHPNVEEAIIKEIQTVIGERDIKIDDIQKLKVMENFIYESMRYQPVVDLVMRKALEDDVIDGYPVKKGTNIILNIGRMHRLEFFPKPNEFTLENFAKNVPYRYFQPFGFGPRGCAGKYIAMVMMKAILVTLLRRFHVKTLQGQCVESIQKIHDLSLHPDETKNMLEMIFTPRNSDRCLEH
Put plainly: in vitro inhibition of aromatase activity (human placental microsomes, aromatization of [1,2-^3 H]-androstenedione). In kind it is biochemical. As to conditions: 20 minutes at 37° C. Here is the method: The microsomal preparation so obtained is lyophilized and stored at -40° C.
The assay is conducted substantially as described by Thompson and Siiteri. The human placental microsomes are added to [1,2-^3 H]-androstenedioneand incubated for 20 minutes at 37° C. The amount of aromatization of the labelled substrate is detected by the […] of ^3 H2 O into the incubation medium. The substrate is removed by chloroform extraction, followed by adsorption to charcoal in suspension. The charcoal is removed by centrifugation and the steroid-free medium is counted in a liquid scintillation counter. Compounds are tested for aromatase inhibitory activity by adding them to the incubation medium prior to the addition of the microsomes. The relative cpm obtained with and without the inhibitor is used to calculate the percent inhibition of the aromatization of androstenedione to estrone.

Assay [3] relates to female dogs. Put plainly: prevention of proestrus and estrus in female dogs treated during anestrus. In kind it is in vivo, dog. Particulars: 10.0 mg/kg p.o. daily for 224 days, ten mature beagles during anestrus; controls exhibited proestrus and estrus at least once. An excerpt:
(§1) Proestrus, for example in the bitch, commences with a vaginal discharge, followed by attraction of the male resulting from estrogen secretion and lasts on an average of 9 days. The females only permit mating during estrus. The compounds of the present invention, when administered to female dogs e.g. on the second day of proestrus, terminate all physical signs of proestrus andestrus and mating will be prevented.
(§2) For example, ten mature beagles during anestrus with known breeding histories were administered e.g. 10.0 mg/kg p.o. daily of the compound of example 46 for 224 days. […] Ten female beagles with known breeding histories were administered 10.0 mg/kg p.o. daily of the compound of example 46 for 91 days beginning on the first day proestrus was noted.

Assay [4] concerns female dogs. Put plainly: cessation of proestrus and estrus in female dogs treated from proestrus. In kind it is in vivo, dog.
Description: as §1, §2

Assay [5] has as its system dimethylbenzanthracene (DMBA)-induced mammary tumors. Put plainly: antitumor activity in DMBA-induced mammary tumors in rats. In kind it is in vivo, female Sprague-Dawley rats. As to conditions: Rattus norvegicus, po, read-out: effective daily dose (antitumor). From the text:
Exp. Biol. Med. 160, 296-301 (1979)].

Assay [6] concerns female rats. Put plainly: in vivo antifertility property (implantation and/or fetal resorption) in rats. Details: species or system rat (Sprague Dawley). As to conditions: Rattus norvegicus, po, administered as the fumarate or hemisuccinate salt, read-out: dose at which fertility is inhibited. Here is the method: Mated female rats (Sprague Dawley) weighing approximately 180-200 g were obtained on the day of coitus. The presence of sperm in the vagina was used as a verification that mating had occurred. On the day of receipt, day of coitus or day 0 of `pregnancy`, the rats are divided into two groups of six to eight rats per group. One group is given various doses of the test compound p.o., suspended in 0.2 ml of carboxymethylcellulose (CMC) beginning on day 1 of `pregnancy` and continuing through day 9 of `pregnancy`. These same rats receive a daily injection of 0.1 ml of sesame oil s.c. over this same time frame. The second group of rats receive the vehicles, CMC p.o. and oil s.c., on days 1-9 of `pregnancy`. All of the rats are sacrificed on day 12 or 13 of `pregnancy`, and their uteri are exposed and examined for fetuses and/or resorption sites.

Molecules are shown by their SMILES. Where a name gives a salt, the structure may show the parent alone. Read-outs that look alike come from different tables or passages of the source.

Regarding `N#Cc1ccc(C(c2cccnc2)n2ccnc2)cc1` (stereo not drawn) [Example 5e, 4-[alpha-(3-pyridyl)-1-imidazolylmethyl]-benzonitrile], the minimal effective dose in assay [1] was about 3 µg/kg. Also, the IC50 in assay [2] was about 16 nM.

On to `N#Cc1ccc(C(c2cccnc2)n2ccnc2)cc1` (stereo not drawn) [Example 46, sulfate salt of 4-[alpha-(3-pyridyl)-1-imidazolylmethyl]benzonitrile], for which the signs of proestrus result is given as “No signs of proestrus were observed” in assay [3] and “All signs of proestrus disappeared” in assay [4] (10.0 mg/kg p.o. daily for 91 days beginning on first day of proestrus, ten female beagles). In addition, in assay [4] (10.0 mg/kg p.o. daily for 91 days, ten female beagles, male presented 9 and 11 days later), the “acceptance of a male” value was “no dogs accepted a male”. For the same molecule, the “proestrus during remainder of treatment” value in assay [4] (10.0 mg/kg p.o. daily, remainder of the 91 days, ten female beagles) is recorded as “Proestrus was not observed”. The “acceptance of a male dog” value in assay [4] (10.0 mg/kg p.o. daily, 9 and 11 days following the initial sign of proestrus) is “refused to accept a male dog”. Further, in assay [4] (190 days recovery period after 91 days at 10.0 mg/kg p.o. daily), the “dogs exhibiting estrus during recovery” value is “eight of ten dogs exhibited estrus”.

For `N#Cc1ccc(C(c2ccc(C#N)cc2)n2cncn2)cc1` [Example 20a, 4-[alpha-(4-cyanophenyl)-1-(1,2,4-triazolyl)-methyl]benzonitrile], the minimal effective dose in assay [5] (daily, p.o., rats, DMBA-induced mammary tumors) is about 0.03 mg/kg/day.

Regarding `N#Cc1ccc(C(c2ccc(C#N)cc2)n2ccnc2)cc1` [Example 2a, 4-[alpha-(4-cyanophenyl)-1-imidazolylmethyl]-benzonitrile], the minimal effective dose is about 0.1 mg/kg/day in assay [5] and about 4000 µg/kg in assay [6].

In the case of `N#Cc1ccc(CC(c2ccc(C#N)cc2)n2ccnc2)cc1` (stereo not drawn) [Example 11f, 4-[alpha-(4-cyanobenzyl)-1-imidazolylmethyl]benzonitrile], the minimal effective dose in assay [1] is about 3 µg/kg. For the same molecule, the concentration for half-maximal inhibition (IC50) in assay [2] is about 3 nM.

Values taken from patent publication US5112845A, “Alpha-heterocycle substituted tolunitriles” (Ciba-Geigy Corporation, priority 1990, dated 1992).
